row,SMILES,melting point [°C]
1,OC1CCN(c2nnc(-c3ccc(Cl)cc3)c(-c3ccc(Cl)cc3)n2)CC1,102 to 105
2,COc1ccc(NC(=O)Cn2c3c(c4c(Cl)c(Cl)ccc42)CCN(C(=O)OC(C)(C)C)CC3)cc1,143 to 144
3,CON=C(C(=O)OC)c1csc(NC(=O)CCl)n1,131
4,CC(C)(C)NC(=O)N1CCc2cc(S(=O)(=O)n3cc(-c4ccccc4)[nH]c3=O)ccc21,222 to 223
5,CONC(=O)Nc1ccc(-c2sc3c(c2CNC(C)c2ccccc2)c(=O)n(C2CCC(O)CC2)c(=O)n3Cc2c(F)cccc2F)cc1 (stereo not drawn),137 to 138
6,COc1cc([N+](=O)[O-])c2nccc(C)c2c1OCCCCc1ccccc1,88 to 89
7,N#Cc1c(N2CCCCC2)cc(-c2ccco2)c2c1Cc1ccccc1-2,160 to 162
8,O=C1NCCN1c1ccc(S(=O)(=O)Nc2ccc(Br)cc2)cc1,237 to 239
9,CCCc1ccc(-c2ccc3c(c2)C=C(C(=O)OC)CCS3(=O)=O)cc1,155 to 156
10,Cn1c(C(F)(F)F)cc(F)c(-c2ccc(Cl)cc2)c1=O,120 to 122
11,COC(=O)CCCCCCCCCCCCCCC=O,41.5
12,C=C(C)n1c(=O)n(CCN2CCC(Cc3c[nH]c4ccc(F)cc34)CC2)c2ccccc21,132
13,Cc1csc2ccc3[nH]c4c(c3c12)CN(C(C)C)CC4,199 to 203
14,CCCC(=O)Nc1cc(N(CCO)CCO)ccc1N=Nc1snc(C)c1C#N,175 to 178
15,CC(=O)c1ccc(-c2cnco2)cc1,128 to 130
16,CCOC(=O)c1cc2ccc(-c3ccc(C)cc3)cc2n1C,98 to 99
17,C#C/C(=C\c1cccnc1)c1c[nH]c2ccc(OC)cc12,136
18,CNC(=S)NS(=O)(=O)c1cc(CCNC(=O)c2cc(C(C)(C)C)ccc2OC)ccc1OC,165 to 168
19,O=C1CCC(c2ccc3[nH]c(-c4cccc(C(F)(F)F)c4)cc3c2)=NN1,215 to 218
20,CCOC=Nc1nc(-c2ccc(C3CCCCC3)cc2)cs1,84 to 85
21,COC(=O)c1ccc(C#N)s1,76 to 78
22,N#Cc1ccc(OCC(O)CN2C3CCC2CNC3)cc1 (stereo not drawn),125 to 128
23,COc1cc(C2CCN(C(=O)CN(C)C)CC2)ccc1Nc1ncc2ccc(-c3ccccc3OC)n2n1,78 to 87
24,O=C(NCCCCO)c1c([N+](=O)[O-])ccc(N(CCBr)CCBr)c1[N+](=O)[O-],114 to 117
25,C#CCc1c(C)nc2c(OCc3ccccc3OC)cccn12,134 to 136

row,SMILES,melting point [°C]
1,N#Cc1c(N)c(C#N)c(-c2ccccc2)c2c1CCC2,148 to 149
2,CCOc1cc2c(c3c1OC(C)(C)C3)C(c1cccc(NC(=O)CSC)c1)=NC(C)(C)C2,162 to 163
3,CC1Cc2cc3c(cc2C(C=Cc2cccc(Cl)c2)=NN1)OCO3 (stereo not drawn),114 to 117
4,Cc1ccc(S(=O)(=O)NC2CCCC2NC(=O)OC(C)(C)C)cc1 (stereo not drawn),129 to 130
5,CS(=O)(=S)OCCC(=O)O (stereo not drawn),44 to 46
6,CCSC1=C(C#N)C(c2ccccc2)(c2ccccc2)C(=O)N1CCCBr,97
7,COc1ccc(C(=O)c2cc(Br)c(OC)cc2OC)c(F)c1,114 to 115
8,Cc1csc2nc3cccc(C(F)(F)F)c3c(=O)n12,182 to 186
9,COC(=O)c1ccc(C(=O)N(SSN(C(=O)c2ccc(C(=O)OC)cc2)c2ccccc2)c2ccccc2)cc1,276 to 278
10,CCc1nn(CCO)c(CO)c1Sc1cc(Cl)cc(Cl)c1,106 to 108
11,COc1ccc(-n2cnnc2SC)cc1,172
12,CC(c1cccnc1)n1c(=O)[nH]c2cc(Cl)ccc21 (stereo not drawn),190
13,CCc1cccc(C)c1CNc1cc(Br)cc2c1nc(C)n2COCc1ccccc1,117 to 119
14,c1ccc(OCC2CO2)c(Cc2cccc3[nH]ccc23)c1 (stereo not drawn),78
15,COCc1cc(OC)c(C=O)c(OC)c1,72 to 76
16,Oc1c(Br)cc(-c2c3ccccc3c(C(F)(F)F)c3sc4ccccc4c23)cc1Br,223 to 225
17,Cc1ccc(S(=O)(=O)Nc2ccc([N+](=O)[O-])cc2C#N)cc1,166 to 167
18,OCc1cc2occc2cn1,72 to 74
19,CC(C)n1nc(-c2c(-c3ccccc3)nn3ccc(N4CCN(c5ccccc5)CC4)cc23)ccc1=O,> 240
20,CCc1nc2c(N)cccc2o1,46
21,CS(=O)(=O)CC(=O)N[C@H]1CC[C@H](CCN2CCN(c3nccc4c3CCO4)CC2)CC1,260
22,CC(=O)NS(=O)(=O)c1cccc(N)c1,148 to 150
23,CN(C(=O)C1=NN(c2ccc(Cl)cc2)C(c2ccc(Cl)cc2)C1)c1ccc(C(F)(F)F)cc1 (stereo not drawn),181 to 183
24,Cc1ccc(C)c(NC(=O)N2CCC(c3nc(C4=NOC(c5ccccc5)C4)cs3)CC2)c1 (stereo not drawn),124 to 127
25,N=C(Nc1ccc(CCNCc2cccc(F)c2)cc1)c1cccs1,130 to 131

row,SMILES,melting point [°C]
1,CCOc1cc(C(CC(=O)OC)N2C(=O)c3ccc(N)cc3C2=O)ccc1OC (stereo not drawn),65 to 67
2,FCc1cccc(-c2ccc(-c3cn([C@H]4CN5CCC4CC5)nn3)s2)c1,144
3,COc1ccc2c(c1)C(=O)c1c-2c(NCCCN(C)C)nc2ccccc12,113 to 114
4,COc1ccc(C(Cl)Sc2ccc(Cl)cc2)cc1 (stereo not drawn),76 to 77
5,CCCc1c(OC(C(=O)OCC)c2ccc(Cl)c(Cl)c2)ccc(C(C)=O)c1O (stereo not drawn),77 to 79
6,Oc1ccc(C(c2ccc(O)cc2)(c2ccc(I)cc2)C(F)(F)F)cc1,187 to 189
7,N=C(NC(=O)OCc1ccccc1)N(C(=O)OCc1ccccc1)C1CCC(CCN2CCN(c3ccccc3)CC2)CC1 (stereo not drawn),136 to 137
8,COC(=O)[C@H]1[C@@H](NC(=O)OC(C)(C)C)C(=O)N1Cc1ccc(OC)cc1OC (relative stereo),134 to 135
9,Cc1ccc(NC(=O)c2ccc(C(=O)Nc3ccccc3NC(=O)OC(C)(C)C)s2)cc1Nc1nccc(-c2cccnc2)n1,206 to 208
10,O=C(O)C(=O)c1ccc(OCCCCCCCCCCCCOc2ccccc2)cc1,98 to 100
11,CCOC(=O)C1CN(CC)c2nc3cc(F)c(F)cc3cc2C1=O (stereo not drawn),152
12,O=C(C=Cc1cccc(S(=O)(=O)NCc2ccco2)c1)NO,165
13,O=C(O)CCCCCCC1=C(C=Cc2ccccc2)C(=O)CC1,118 to 120
14,Cc1ccnc(O)c1C#N,230 to 232
15,O=C1N(CC2CCCO2)c2ccccc2C12COc1cc3c(cc12)CCCC3 (stereo not drawn),139 to 141
16,Nc1cc(OCCOCP(=O)(O)O)nc(N)n1,279
17,CCCc1c(OCCCCCOc2ccc(C(=O)c3ccc(C(=O)O)cc3)cc2CCC(=O)O)ccc2c1OCCC2=O,175 to 177
18,CS(=O)(=O)C(C(=O)OCc1ccccc1)(C(=O)OCc1ccccc1)N1C(=O)C(NC(=O)Cc2ccccc2)C1CN=[N+]=[N-] (stereo not drawn),114 to 115
19,CCCCOc1ccc(-c2nnc(Nc3ccc(Cl)c(Cl)c3)s2)cc1,233 to 235
20,O=C1O[C@@H](Cn2ccnn2)CN1c1ccc(-c2ccc(C3=NOC(CS(=O)(=O)CCc4ccncc4)C3)nc2)c(F)c1 (stereo partly drawn),195
21,COC(=O)NC(=O)C(Cc1ccc(OCCc2nc(-c3ccccc3)oc2C)cc1)C(=O)OC (stereo not drawn),120
22,O=C(Nc1ccc(Oc2ccccc2)cc1)N1CCN(c2ncnc3ccc(Br)cc23)CC1,169 to 170
23,Cc1ccccc1-c1c(NC(=O)Nc2ccc(F)cc2F)c(=O)oc2c(F)cc(F)cc12,220 to 221
24,CCc1cc(C(=O)C(c2ccc(O)cc2)c2ccc(O)cc2)cc(C(C)(c2ccc(O)cc2)c2ccc(O)cc2)c1,144 to 146
25,NC(=O)c1cc2cc(Cl)ccc2o1,200 to 202

row,SMILES,melting point [°C]
1,COC(=O)C(Oc1ccc(Cl)cc1)c1ccc(Oc2ccc(Cl)cc2)cc1 (stereo not drawn),100 to 102
2,N#CC1=C(C2CCCCC2)Nc2n[nH]cc2C1c1cccc(C#N)c1Br (stereo not drawn),193
3,O=C(CN1CCCC1=O)NCc1cccc(CNC(=O)CN2CCCC2=O)n1,149
4,Oc1ccc2c(ccc3ccccc32)c1,165 to 167
5,Cn1nc(-c2cnc3[nH]cc(C(=O)NCC(C)(C)C)c3n2)c2ccc(F)cc21,294 to 295
6,CS(=O)(=O)Nc1ccc(F)c(C(O)CN)c1 (stereo not drawn),176 to 179
7,Cn1c(-c2ccc(-c3ccco3)cc2)cnc1[C@H](Cc1ccccn1)N(C=O)c1cc2cc(Cl)ccc2o1,144 to 146
8,CC(C)(CC(=O)O)c1ccccc1SSc1ccccn1,122 to 125
9,CSc1ccc(C2=C(c3ccc(F)cc3C)CCC2)cc1,67 to 68
10,O=C(O)C1(c2ccccc2)CC2CC2C1 (stereo not drawn),78 to 125
11,CC(=O)c1cccn1Cc1ccco1,42 to 43
12,CC1CN(Cc2ccccc2)Cc2cc(-c3ccccc3)n(Cc3ccccc3)c21 (stereo not drawn),131
13,CCCCNC(=O)NS(=O)(=O)c1c(C(=O)OCC)cnn1-c1ccc2ccccc2n1,140 to 142
14,O=C1c2cccc3c4c(cc(c23)C(=O)N1O)COCO4,314 to 315
15,CS(=O)(=O)n1c2cc(O)c(O)cc2c2c(Br)cc(O)c(O)c21,> 270
16,O=Cc1cc(Br)c(C=O)cc1Br,184 to 189
17,CCOC(=O)c1sc(N)nc1C(C)(C)C,99 to 100
18,CC(=NC(C#N)=C(N)C#N)c1ccc2ccccc2c1,188 to 189
19,COC(=O)c1ccc(OCC2CCCN(C)C2)cc1 (stereo not drawn),55 to 56
20,COC(=O)c1ccccc1NC(=O)Cl,80 to 82
21,O=C(O)c1ccc(OCCNC(=O)C2Cc3ccccc3N2S(=O)(=O)c2ccc(-c3ccc(F)cc3Cl)cc2)cc1F (stereo not drawn),98 to 102
22,Cc1c(N2CC[C@@H](N)[C@H](C)C2)c(F)cc2c(=O)c(C(=O)O)cn(C3CC3)c12 (relative stereo),223 to 225
23,COc1ccc(-c2cc(=S)ss2)cc1,110 to 111

# — a melting point compilation (Tetko et al.; mined from patent text by program, amines drawn as free bases though some values may be those of a salt)
